# From patent publication US20090054720A1, “Use of histone deacetylase inhibitors in combination with radiation for the treatment of cancer” (priority 2002, published 2009)
# Columns and labels:
# [1] = tested on: LNCaP spheroids; test: LNCaP spheroid growth (volume monitoring); assay type: cell-based, human; settings: for growth delay: 5-day incubation, vs untreated
# Method: Cell concentrations were determined by counting trypsinized cells with a hemocytometer. […] The entire content of the above references is hereby incorporated by reference.
# The medium was inoculated at 6.7×10^4 cells/mL from trypsinized stock cultures. The resulting suspension was used to seed 100 mm plates with approximately 10^6 cells. After an incubation of 5-7 days, spheroids of ˜200 μm diameter were selected under an inverted phase-contrast microscope (Axiophot 2; Carl Zeiss Ltd., Gottingen, Germany) fitted with an ocular scale using an Eppendorf pipette.
# TREATMENT PROTOCOLS: After each treatment, spheroids were washed three times by suspension in fresh medium. […] A minimum of 12 spheroids was used for each condition in duplicate experiments.
# The antibody was obtained from the laboratory of David Scheinberg, M. D., Ph.D., Memorial Sloan-Kettering Cancer Center.
# Following complete treatment, washed spheroids were placed in separate agar-prepared wells of a 24 well plate. Untreated spheroids were washed and separated immediately after initial selection. The medium in each well was replaced, and volume measurements preformed, twice per week. Using the inverted microscope and ocular scale described previously, the major and minor diameter, dmax and dmin respectively, were determined and spheroid volume calculated as V=(⅙)·π·dmax·dmin^2. Volume monitoring was stopped once a spheroid had exceeded the field of view of the microscope or had fragmented into individual cells or multiple smaller cell clusters.
# We describe this relationship through the inequality:
# avg(V|S=5M, R=6 Gy)<C+{avg(V|S=5 μM, R=0)−C}+{avg(V|S=0, R=6 Gy)−C}
# To test for synergy, we computed 2000 bootstrap replicates of the average log AUC, for each of the four groups, and computed the proportion of replicates where the inequality was not obtained. This proportion is termed the achieved significance level (p-value).
# [2] = tested on: LNCaP spheroids; test: Outgrowth assay (colony formation) of spheroids that did not regrow; assay type: cell-based, human; settings: 5 μM SAHA 96 h in combination with 6 Gy external beam radiation
# [3] = tested on: LNCaP spheroids; test: TUNEL staining of spheroid sections (apoptosis); assay type: cell-based, human; settings: for TUNEL staining (apoptosis): SAHA alone
# Method: At 0, 6, 24, or 48 h post treatment spheroids were washed in cold media, fixed for 4 hr in 4% paraformaldehyde, and placed in paraffin blocks. Serial 5-μm sections of the blocks were cut using a microtome and mounted on poly-L-lysine-coated slides that were fixed in ice cold acetone for 10 min.
# A final, 2 min incubation in Hematoxylin was used to counterstain sections. Untreated spheroids were used as controls; positive controls were created using DNase I (Boehringer, Ingelheim, Germany). Images were captured digitally from an inverted phase-contrast microscope using a coupled Pixera Professional Camera and associated software (Pixera Visual Communication Suite, Pixera, Los Gatos, Calif.). Images were scored for positive staining as percentage of reactive cells within the spheroid section.
# A two-tailed T test was used to test for significant differences in the percentage of positively stained cells.
# [4] = tested on: LNCaP monolayer cell culture; settings: cited from earlier work
# [5] = tested on: prostate tumor xenografts; settings: nude mice (Butler et al. 2000); cited from earlier work
# [6] = continuous exposure at 5 μM SAHA
compound,measurement,setting,value
Ac225-HuM195: recombinant humanized Anti-CD33 monoclonal antibody which has been radiolabelled with actinium225,spheroid growth,[1]; 100 nCi/mL Ac225-HuM195 for 24 hours alone,did not cause growth inhibition
"O=C(CCCCCCC(=O)Nc1ccccc1)NO [SAHA, Suberoylanilide hydroxamic acid]",growth delay,[1]; 1.25 μM SAHA,4 days
same,spheroid growth,"[1]; 1.25 μM SAHA, 120-hour and continuous exposure",delayed but not arrested
same,growth delay,[1]; 2.5 μM SAHA,7 days
same,spheroid growth,"[1]; 2.5 μM SAHA, over the 120 h incubation period",complete growth arrest
same,"statistical analysis of synergy (log AUC of tumor volume curve, bootstrap)","[1]; 5 μM SAHA 96 h + 6 Gy vs additive model, p<0.01",synergistic inhibition of tumor growth
same,spheroid growth,[1]; 5 μM SAHA 96 h in combination with 6 Gy external beam radiation after 48 h,complete growth inhibition
same,delay in spheroid growth,[1]; 5 μM SAHA 120 h in combination with 3 Gy external beam radiation,7 days
same,growth delay,[1]; 5 μM SAHA,13 days
same,time of incubation until complete spheroid disruption,"[1]; 5 μM SAHA, continuous incubation",13 to 16 days
same,median volume reduction,"[1]; 5 μM SAHA, five days following a 120 hour incubation",2.4 fold
same,spheroid growth,[1]; 24 hour exposure to 100 nCi/mL Ac225-HuM195 followed by 96 h incubation with 5 μM SAHA,complete growth inhibition
same,initial delay of spheroid growth,[1]; 96 h exposure to 5 μM SAHA alone (Example 5),10 days
same,spheroid growth after the initial delay,"[1]; 96 h exposure to 5 μM SAHA alone, after a period of 30 days (Example 5)",spheroid growth to almost the levels of control untreated spheroid volume
same,spheroid growth,[1]; continuous exposure at 2.5 μM SAHA,complete growth suppression
same,day by which the majority of spheroids disaggregated,[1]; [6],≤ 20 days
same,spheroid volume,[1]; [6],rapid loss in spheroid volume
same,spheroids forming colonies in the outgrowth assay,[2],none of the 12 spheroids forming colonies
same,TUNEL staining (apoptosis),"[3]; 48 h after the end of SAHA incubation (5 μM, 96 h)",apoptotic cells are found throughout the spheroid
same,TUNEL staining pattern compared with SAHA alone,"[3]; SAHA (5 μM, 96 h) and 6 Gy radiation",almost identical pattern
same,mode of cell death following exposure to SAHA,[3]; TUNEL staining and spheroid morphology,predominantly by apoptosis
same,TUNEL staining (apoptosis),[3]; immediately after the end of a 96 h SAHA incubation (5 μM),majority of cells on the spheroid surface have undergone apoptosis
same,monolayer cell growth,"[4]; 2.5 μM SAHA, over a 4-day period (Butler et al. 2000)",complete growth suppression with minimal to no cell kill
same,monolayer cell kill,[4]; 5 μM SAHA (Butler et al. 2000),progressive cell kill starting after 48 hours
same,toxicity,[5],minimal to no detectable toxicity
